This note sets out measurements from patent US11951131B2, “Anti-SLAMF7 chimeric antigen receptors” (The United States of America, as represented by the …, priority 2018, dated 2024).

Common to all, as to type: cell-based, human
Test [1] relates to Panc 10.05. The experiment in a line: IFN-gamma ELISA, CAR T cells with Panc 10.05 target cells. As to conditions: Table B-2. From the text: (§1) MM.1S is a SLAMF7^+ multiple myeloma cell line that was obtained from American Type Culture Collection (ATCC). A549 is a BCMA-negative lung cancer cell line (ATCC). TC71 is a BCMA-negative sarcoma cell line. CCRF-CEM, 293T, and A549 are SLAMF7-negative cell lines (ATCC). COL0207, HepG2, U251, Panc10.05, and TC71 are […] that were kind gifts from Dr. Steven Rosenberg, National Cancer Institute. SLAMF7-K562 are K562 cells (ATCC) which were transduced with the gene for full-length SLAMF7. SLAMF7-RPMI are RPMI8226 cells (ATCC) which were transduced with the gene for full-length SLAMF7. NGFR-K562 are K562 cells which were transduced with the gene for low-affinity nerve growth factor (Kochenderfer et al., J. Immunother., 32(7): 689-702 (2009)). All of the human samples mentioned were obtained from patients enrolled in IRB-approved clinical trials at the National Cancer Institute.
(§2) One-hundred thousand SLAMF7^+ or SLAMF7-negative target cells were combined with 100,000 CAR-transduced T cells in duplicate wells of a 96 well round bottom plate in 200 µL of AIM V™ medium (Invitrogen) plus 5% human serum. […]
(§3) The T cells columns indicate whether T cells were transduced with Luc90-CD828Z, Luc63-CD828Z, or were untransduced. The % CAR^+ in Table B-1 was determined by staining the T cells with Protein L. Except for the % CAR^+ column, all values are pg/mL of IFN-gamma. […]
A general note: In an ELISA, binding on a coated surface is turned into a signal by an enzyme label.

Test [2] concerns H929. The experiment in a line: IFN-gamma ELISA, CAR T cells with H929 target cells. Particulars: Table C. Here is the method: (§4) One-hundred thousand SLAMF7^+ or SLAMF7-negative target cells were combined with 100,000 CAR-transduced T cells in duplicate wells of a 96 well round bottom plate in 200 µL of AIM V™ medium (Invitrogen) plus 5% human serum. The plates were incubated at 37° C. for 18-20 hours. Following the incubation, ELISAs (enzyme-linked immunosorbent assays) for IFNγ were performed by using standard methods.
(§5) All values are pg/mL of IFN-gamma. T cells that were either untransduced or transduced with one of the indicated CARs were cultured with target cells overnight, and a standard IFN-gamma ELISA was performed on the culture supernatant.

For test [3], the system named is TC71. As to the kind of experiment: IFN-gamma ELISA, CAR T cells with TC71 target cells. As to conditions: Table B-2.
Excerpt: as §1, §2, §3

Test [4] deals with A549. As to the kind of experiment: IFN-gamma ELISA, CAR T cells with A549 target cells. As to conditions: Table B-2; SLAMF7-negative.
Excerpt: as §1, §2, §3

The subject of test [5] is SLAMF7-RPMI. As to the kind of experiment: IFN-gamma ELISA, CAR T cells cultured overnight with SLAMF7-RPMI target cells.
Excerpt: as §1, §4
The T cells columns indicate whether T cells were transduced with Luc90-CD828Z, Luc63-CD828Z, or were untransduced. The % CAR^+ in Table B-1 was determined by staining the T cells with Protein L. Except for the % CAR^+ column, all values are pg/mL of IFN-gamma. T cells that were either untransduced or transduced with one of the indicated CARs were cultured with target cells overnight and a standard IFN-gamma ELISA was performed on the culture supernatant.
as §5
The values in the cells are pg/mL of IFN-gamma. T cells that were either untransduced or transduced with one of the indicated CARs were cultured with target cells overnight, and a standard IFN-gamma ELISA was performed on the culture supernatant. The concentrations of 0, 50, or 200 ng/mL at the top of each column indicates the concentration of soluble SLAMF7 added to all T cell plus target cell overnight cultures in that column. The soluble SLAMF7 was added at the beginning of the overnight culture.

Test [6] has as its system U251. The experiment in a line: IFN-gamma ELISA, CAR T cells with U251 target cells. As to conditions: Table B-2.
Excerpt: as §1, §2, §3

As to “Luc90-CD828Z: anti-SLAMF7 CAR (SEQ ID NO: 27): murine Luc90 scFv, human CD8a hinge and TM, CD28 and CD3ζ domains; tested as transduced T cells”, in test [1], the “IFN-gamma, target cells Panc 10.05” value is reported as 36 pg/mL. In addition, the “IFN-gamma, target cells H929” value in test [2] is listed as 531 pg/mL. The “IFN-gamma, target cells TC71” value in test [3] is on record as 82 pg/mL. Moreover, the “IFN-gamma, target cells A549” value in test [4] came to 79 pg/mL. Besides, the “IFN-gamma, target cells SLAMF7-RPMI” value in test [5] (Table B-1, overnight culture, ELISA on supernatant) stood at 21293 pg/mL. The “IFN-gamma, target cells SLAMF7-RPMI8226” value in test [5] (Table C, overnight culture) is given as 20832 pg/mL. For the same substance, in test [5] (Table D, soluble SLAMF7 added 0 ng/ml), the “IFN-gamma, target cells SLAMF7 RPMI 0 ng/ml” value is reported as 23538 pg/mL. Besides, in test [5] (Table D, soluble SLAMF7 added 50 ng/ml), the “IFN-gamma, target cells SLAMF7 RPMI 50 ng/ml” value is 23.315 ng/mL. For the same substance, the “IFN-gamma, target cells CD319 RPMI 200 ng/ml” value in test [5] (Table D, soluble SLAMF7 added 200 ng/ml) worked out at 21301 pg/mL. Besides, the “IFN-gamma, target cells U251” value in test [6] is 27 pg/mL.
